How the values were obtained:
[1] = test system: Candida albicans biofilms; experiment: biofilm XTT reduction assay (SIC80, SFICI); conditions: for SFICI / SICc: Candida albicans
Protocol: (§2) Biofilms of Cryptococcus were seeded in DMEM, and all other species were seeded in RPMI-1640.

[2] = test system: Aspergillus parafelis; experiment: MIC broth microdilution (CLSI); assay type: cell-based; conditions: Aspergillus parafelis DTO 341-F2
Protocol: (§3) Antifungal susceptibility was determined by broth microdilution according to the CLSI guidelines described in M27-Ed4 ([16]).

[3] = test system: Aspergillus parafelis; experiment: checkerboard drug interaction (FICI, MICc);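 note: simplified diagonal checkerboard screen pairing antifungals with FPPS inhibitors, FICI calculated under the Loewe additivity model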
Protocol: (§4) Drug interactions between antifungals and FPPS inhibitors were investigated using a simplified checkerboard diagonal screening method ([45]). […] FICIs were determined according to the Loewe additivity model ([17]).

[4] = test system: Aspergillus udagawae; experiment: MIC broth microdilution (CLSI); assay type: cell-based; conditions: Aspergillus udagawae 8G81
Protocol: as §3

[5] = test system: Candida parapsilosis; experiment: MIC broth microdilution (CLSI); assay type: cell-based; conditions: Candida parapsilosis ATCC 22018
Protocol: Antifungal susceptibility was determined by broth microdilution according to the CLSI guidelines described in M27-Ed4 ([16]). […] MFC was determined by back-plating drug-treated cultures from MIC broths onto SDA plates. The MFC was defined as the lowest concentration from which no colonies could be cultured.

[6] = test system: Saccharomyces cerevisiae biofilms; experiment: biofilm XTT reduction assay (SIC80, SFICI); assay type: cell-based; conditions: for SICc / SFICI: Saccharomyces cerevisiae
Protocol: as §2

[7] = test system: Trichophyton soudanense; experiment: MIC broth microdilution (CLSI); conditions: Trichophyton soudanense R-167
Protocol: as §3

[8] = test system: Mucor circinelloides; experiment: MIC broth microdilution (CLSI); assay type: cell-based; conditions: Mucor circinelloides 80-14-240-5007
Protocol: as §3

[9] = test system: Aspergillus fumigatus biofilms; experiment: biofilm XTT reduction assay (SIC80, SFICI); assay type: cell-based; conditions: for SICc / SFICI: Aspergillus fumigatus
From the text: (§1) […]. […] […].

[10] = test system: Candida glabrata biofilms; experiment: biofilm XTT reduction assay (SIC80, SFICI); assay type: cell-based; conditions: for SICc / SFICI: Candida glabrata
From the text: as §1

[11] = test system: Aspergillus flavus biofilms; experiment: biofilm XTT reduction assay (SIC80, SFICI); assay type: cell-based; conditions: for SICc / SFICI: Aspergillus flavus
From the text: as §1

[12] = test system: Trichophyton interdigitale; experiment: MIC broth microdilution (CLSI); assay type: cell-based; conditions: Trichophyton interdigitale R-234
Protocol: as §3

[13] = test system: Cryptococcus tetragattii; experiment: checkerboard drug interaction (FICI, MICc); assay type: cell-based;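 note: simplified diagonal checkerboard screen pairing antifungals with FPPS inhibitors, with FICI calculated under the Loewe additivity model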
Protocol: as §4

[14] = test system: Candida tropicalis; experiment: checkerboard drug interaction (FICI, MICc); assay type: cell-based;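 note: simplified diagonal checkerboard screen of antifungal plus FPPS inhibitor combinations, with FICI computed by the Loewe additivity model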
Protocol: as §4

[15] = test system: Scedosporium apiospermum; experiment: checkerboard drug interaction (FICI, MICc); assay type: cell-based;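 note: simplified diagonal checkerboard screen of antifungal plus FPPS inhibitor pairs, with FICI computed under the Loewe additivity model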
Protocol: as §4

[16] = test system: Aspergillus udagawae; experiment: checkerboard drug interaction (FICI, MICc); assay type: cell-based;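 note: simplified diagonal checkerboard screen pairing antifungals with FPPS inhibitors, FICI calculated using the Loewe additivity model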
Protocol: as §4

[17] = test system: Paraphyton cookei; experiment: MIC broth microdilution (CLSI); assay type: cell-based; conditions: Paraphyton cookei R-639
Protocol: as §3

[18] = test system: Enterococcus faecalis; experiment: antibacterial MIC; assay type: cell-based
From the text: […]; Table S3). […]. […] […].

[19] = test system: Cryptococcus neoformans biofilms; experiment: biofilm XTT reduction assay (SIC80, SFICI); conditions: for SICc / SFICI: Cryptococcus neoformans
Protocol: as §2

CCCCCCCCCCn1cc[n+](CC(O)(P(=O)(O)O)P(=O)(O)O)c1 [10-ZOL, Decyl-zoledronate]
≥4: FICI ([3]; 5FC:10-ZOL) | FICI ([3]; CAS:10-ZOL) | FICI ([14]; CAS:10-ZOL)
64 µg/mL: SICc ([1]; ITR:10-ZOL combination) | SICc ([1]; KET:10-ZOL combination) | SIC80 ([6]; agent alone, Saccharomyces cerevisiae S288c) | SICc ([9]; FLC:10-ZOL combination) | SICc ([11]; ITR:10-ZOL combination)
8 µg/mL: SICc ([6]; KET:10-ZOL combination) | SIC80 ([10]; agent alone, Candida glabrata CBS138) | SICc ([19]; KET:10-ZOL combination)
4: bisphosphonate MICc ([3]; with ITR)
2.13: FICI ([13]; CAS:10-ZOL)
2: bisphosphonate MICc ([3]; with 5FC) | bisphosphonate MICc ([3]; with AMB) | bisphosphonate MICc ([3]; with FLC) | bisphosphonate MICc ([3]; with VOR) | bisphosphonate MICc ([15]; with AMB)
1.48: FICI ([13]; VOR:10-ZOL)
0.52: FICI ([3]; FLC:10-ZOL)
1 µg/mL: MIC / MEC [4] | MIC / MEC [5] | MIC / MEC [8] | MIC / MEC [12]
0.56: SFICI ([19]; KET:10-ZOL)
128 µg/mL: SIC80 ([1]; agent alone, Candida albicans SC5314) | SIC80 ([9]; agent alone, Aspergillus fumigatus ATCC 204305) | SIC80 ([11]; agent alone, Aspergillus flavus ATCC 204304) | SIC80 ([19]; agent alone, Cryptococcus neoformans H99)
0.063: bisphosphonate MICc ([13]; with AMB)
0.38: SFICI ([9]; KET:10-ZOL)
0.75: SFICI ([6]; FLC:10-ZOL) | SFICI ([9]; ITR:10-ZOL) | SFICI ([11]; KET:10-ZOL) | SFICI ([19]; FLC:10-ZOL)
1.00: SFICI ([1]; ITR:10-ZOL) | SFICI ([1]; KET:10-ZOL) | SFICI ([6]; ITR:10-ZOL) | SFICI ([10]; ITR:10-ZOL) | SFICI ([11]; ITR:10-ZOL)
2 µg/mL: MIC / MEC [7] | SICc ([10]; KET:10-ZOL combination)
1.02: FICI ([16]; FLC:10-ZOL)
0.125: bisphosphonate MICc ([13]; with FLC) | bisphosphonate MICc ([13]; with ITR) | bisphosphonate MICc ([13]; with KET) | bisphosphonate MICc ([14]; with AMB) | bisphosphonate MICc ([14]; with ITR) | bisphosphonate MICc ([15]; with KET) | bisphosphonate MICc ([15]; with VOR)
1: bisphosphonate MICc ([3]; with CAS) | bisphosphonate MICc ([3]; with KET) | bisphosphonate MICc ([13]; with CAS) | bisphosphonate MICc ([14]; with 5FC) | bisphosphonate MICc ([14]; with CAS) | bisphosphonate MICc ([14]; with FLC) | bisphosphonate MICc ([15]; with 5FC) | bisphosphonate MICc ([15]; with CAS) | bisphosphonate MICc ([15]; with FLC) | FICI ([16]; 5FC:10-ZOL) | FICI ([16]; CAS:10-ZOL) | bisphosphonate MICc ([16]; with FLC) | bisphosphonate MICc ([16]; with VOR)
0.63: SFICI ([6]; KET:10-ZOL) | SFICI ([9]; FLC:10-ZOL) | SFICI ([10]; FLC:10-ZOL) | SFICI ([11]; FLC:10-ZOL) | SFICI ([19]; ITR:10-ZOL)
0.25: bisphosphonate MICc ([14]; with KET) | bisphosphonate MICc ([15]; with ITR) | bisphosphonate MICc ([16]; with ITR)
4 µg/mL: MIC / MEC [2] | SICc ([10]; FLC:10-ZOL combination) | SICc ([10]; ITR:10-ZOL combination)
2.25: FICI ([15]; 5FC:10-ZOL)
32 µg/mL: SICc ([6]; FLC:10-ZOL combination) | SICc ([6]; ITR:10-ZOL combination) | SICc ([9]; ITR:10-ZOL combination) | SICc ([11]; KET:10-ZOL combination) | SICc ([19]; FLC:10-ZOL combination)
16 µg/mL: SICc ([9]; KET:10-ZOL combination) | SICc ([11]; FLC:10-ZOL combination) | MIC [18] | SICc ([19]; ITR:10-ZOL combination)
1.03: FICI ([16]; VOR:10-ZOL)
0.5 µg/mL: MIC / MEC [17]
1.5: FICI ([14]; 5FC:10-ZOL)
0.50: SFICI ([1]; FLC:10-ZOL) | SFICI ([10]; KET:10-ZOL)
0.5: FICI ([13]; KET:10-ZOL) | bisphosphonate MICc ([13]; with 5FC) | bisphosphonate MICc ([13]; with VOR) | FICI ([14]; VOR:10-ZOL) | bisphosphonate MICc ([14]; with VOR) | FICI ([16]; ITR:10-ZOL) | bisphosphonate MICc ([16]; with 5FC) | bisphosphonate MICc ([16]; with AMB) | bisphosphonate MICc ([16]; with CAS) | bisphosphonate MICc ([16]; with KET)
0.53: FICI ([15]; KET:10-ZOL) | FICI ([15]; VOR:10-ZOL)

Reference: paper PMC12892976, “Alkylation-based optimization of antifungal FPPS inhibitors yields a potent, broad-spectrum lipophilic zoledronate derivative” (mBio, 2025)
